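Grown in 96-well plates, cells were treated for 48 hours with each compound at five concentrations. Insufficient inhibition: endpoint recorded as highest concentration tested. GI50 is the concentration that inhibits growth by half.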 Activity calls are given as the source filed them. Cut-off read from the data, not from the text of the source: active = GI50 up to about 1.1 µM and inactive = higher.
Columns and labels:
Assay in all cases: NCI tumour cell line growth inhibition, 48 h
UACC-257 = tested on: UACC-257
DU-145 = tested on: DU-145
SNB-75 = tested on: SNB-75
UO-31 = tested on: UO-31
HL-60 = tested on: HL-60
OVCAR-3 = tested on: OVCAR-3
786-0 = tested on: 786-0
MDA-MB-435 = tested on: MDA-MB-435
SF-268 = tested on: SF-268
NCI-H460 = tested on: NCI-H460
HT-29 = tested on: HT-29
Malme-3M = tested on: Malme-3M
OVCAR-8 = tested on: OVCAR-8
PC-3 = tested on: PC-3
M14 = tested on: M14
OVCAR-4 = tested on: OVCAR-4
SK-OV-3 = tested on: SK-OV-3
MDA-MB-231 = tested on: MDA-MB-231
SK-MEL-5 = tested on: SK-MEL-5
A498 = tested on: A498

Measured: GI50

Nc1ccc2ccc(N3CCNCC3)nc2n1
inactive: UACC-257 > 100 µM | DU-145 > 100 µM | SNB-75 > 100 µM | UO-31 50.4 µM | HL-60 34 µM | OVCAR-3 17.9 µM | 786-0 61.7 µM | MDA-MB-435 49.7 µM | SF-268 44.7 µM | NCI-H460 44 µM | HT-29 33.7 µM | Malme-3M 38.9 µM | OVCAR-8 > 100 µM | PC-3 44.7 µM | M14 55.1 µM | OVCAR-4 57.7 µM | SK-OV-3 83.9 µM | MDA-MB-231 37.3 µM

O=C(NCc1cccc(C(F)(F)F)c1)c1cc2sccc2nc1C(F)(F)F
inactive: UACC-257 > 100 µM | UO-31 > 100 µM | OVCAR-3 83.4 µM | 786-0 25.5 µM | SK-MEL-5 93.1 µM | MDA-MB-435 > 100 µM | SF-268 64 µM | HT-29 > 100 µM | Malme-3M > 100 µM | OVCAR-8 88.7 µM | PC-3 > 100 µM | M14 > 100 µM | OVCAR-4 32.7 µM | SK-OV-3 81.5 µM | MDA-MB-231 51.4 µM

COc1ccc(/C=C2\CSC/C(=C\c3ccc(OC)c(OC)c3OC)C2=O)c(OC)c1OC
inactive: UACC-257 42.3 µM | DU-145 > 100 µM | UO-31 > 100 µM | HL-60 29.2 µM | OVCAR-3 52.1 µM | 786-0 22.3 µM | SK-MEL-5 28.3 µM | SF-268 41.6 µM | NCI-H460 34.5 µM | HT-29 28.8 µM | Malme-3M 5.86 µM | OVCAR-8 24.1 µM | PC-3 47.3 µM | M14 18.5 µM | SK-OV-3 > 100 µM | MDA-MB-231 66.4 µM

CC(C)(C)C(=O)C(Cc1ccccc1)C(=O)C(C)(C)C
inactive: UACC-257 > 100 µM | DU-145 > 100 µM | SNB-75 > 100 µM | UO-31 81.7 µM | HL-60 30.5 µM | OVCAR-3 55 µM | 786-0 > 100 µM | SK-MEL-5 > 100 µM | SF-268 > 100 µM | NCI-H460 > 100 µM | HT-29 39.4 µM | A498 > 100 µM | Malme-3M > 100 µM | OVCAR-8 > 100 µM | PC-3 46.7 µM | M14 > 100 µM | OVCAR-4 66.1 µM | SK-OV-3 23.2 µM | MDA-MB-231 > 100 µM

CC(C)(CCCCC(C)(C)[N+](C)(C)C)[N+](C)(C)C
inactive: UACC-257 > 100 µM | SNB-75 > 100 µM | UO-31 > 100 µM | HL-60 > 100 µM | 786-0 > 100 µM | SK-MEL-5 > 100 µM | MDA-MB-435 > 100 µM | SF-268 > 100 µM | NCI-H460 > 100 µM | HT-29 > 100 µM | OVCAR-8 > 100 µM | PC-3 > 100 µM | M14 > 100 µM | OVCAR-4 > 100 µM | SK-OV-3 > 100 µM | MDA-MB-231 > 100 µM

Source: ChEMBL document CHEMBL1201862, “PubChem BioAssay data set” (2004)
